One data set relates to MCF7. Briefly: Antiproliferative activity against human MCF7 cells by CCK8 assay. The class given is functional, cell-based. (Formazan colour is commonly taken as a measure of viable cells.)
For the next data set, the system named is PANC-1. Description: Antiproliferative activity against human PANC-1 cells by CCK8 assay. In kind it is functional, cell-based.
Data set [1] can be described thus: Cytotoxicity against human PBMCs by CCK8 assay. In kind it is toxicity, cell-based, PBMC.
The next data set has as its system HepG2. Description: Antiproliferative activity against human HepG2 cells by CCK8 assay. In kind it is functional, cell-based.
The next data set deals with MDA-MB-231. Briefly: Antiproliferative activity against human MDA-MB-231 cells by CCK8 assay. In kind it is functional, cell-based.
Data set [2] deals with K562. Briefly: Antiproliferative activity against human K562 cells by CCK8 assay. The class given is functional, cell-based.
A further data set concerns A549. Description: Antiproliferative activity against human A549 cells by CCK8 assay. The class given is functional, cell-based.
For data set [3], the system named is K562. Description: Induction of apoptosis in human K562 cells assessed as late apoptotic cells at 2.45 uM by Annexin V-FITC and PI staining based flow cytometry analysis (reference value: 3.04%). In kind it is functional. In general terms: Flow cytometry measures light scatter and fluorescence of single cells or particles in a stream.
Data set [4] deals with K562. Description: Induction of cell cycle arrest in human K562 cells assessed as G1 phase cells at 1.23 uM by propidium iodide staining based flow cytometry analysis (reference value: 43.16%). The class given is functional.
Data set [5] concerns K562. Description: Induction of apoptosis in human K562 cells assessed as early apoptotic cells at 1.23 uM by Annexin V-FITC and PI staining based flow cytometry analysis (reference value: 3.31%). The class given is functional.
Data set [6] concerns K562. Description: Induction of cell cycle arrest in human K562 cells assessed as G2 phase cells at 4.90 uM by propidium iodide staining based flow cytometry analysis (reference value: 12.80%). The class given is functional. As to conditions: dose 4.9 µM.
Data set [7] relates to K562. Description: Induction of cell cycle arrest in human K562 cells assessed as S phase cells at 2.45 uM by propidium iodide staining based flow cytometry analysis (reference value: 44.03%). In kind it is functional.
Data set [8] deals with K562. Briefly: Induction of cell cycle arrest in human K562 cells assessed as G2 phase cells at 2.45 uM by propidium iodide staining based flow cytometry analysis (reference value: 12.80%). In kind it is functional.
For data set [9], the system named is K562. Briefly: Induction of apoptosis in human K562 cells assessed as chromatin condensation incubated for 48 hrs by Hoechst 33,258 staining based fluorescence microscopy analysis. The class given is functional, cell-based. As to conditions: dose 1.23-4.9 µM.
In data set [10] the test system is Cell membrane. Briefly: Induction of mitochondrial membrane potential loss in human K562 cells assessed as increase in apoptotic cells at 4.90 uM by JC-1 staining based flow cytometry analysis (reference value: 5.70). The class given is cell membranes. The conditions noted are these: dose 4.9 µM.
Data set [11] relates to K562. Description: Induction of apoptosis in human K562 cells assessed as early apoptotic cells at 4.90 uM by Annexin V-FITC and PI staining based flow cytometry analysis (reference value: 3.31%). The conditions noted are these: dose 4.9 µM. The class given is functional.
Data set [12] concerns K562. Briefly: Induction of apoptosis in human K562 cells assessed as late apoptotic cells at 4.90 uM by Annexin V-FITC and PI staining based flow cytometry analysis (reference value: 3.04%). The conditions noted are these: dose 4.9 µM. The class given is functional.
Data set [13] has as its system K562. Description: Induction of cell cycle arrest in human K562 cells assessed as S phase cells at 1.23 uM by propidium iodide staining based flow cytometry analysis (reference value: 44.03%). In kind it is functional.
Data set [14] relates to K562. Briefly: Induction of cell cycle arrest in human K562 cells assessed as S phase cells at 4.90 uM by propidium iodide staining based flow cytometry analysis (reference value: 44.03%). The class given is functional. As to conditions: dose 4.9 µM.
For data set [15], the system named is K562. Briefly: Induction of apoptosis in human K562 cells assessed as late apoptotic cells at 1.23 uM by Annexin V-FITC and PI staining based flow cytometry analysis (reference value: 3.04%). The class given is functional.
Data set [16] relates to K562. Briefly: Induction of apoptosis in human K562 cells assessed as early apoptotic cells at 2.45 uM by Annexin V-FITC and PI staining based flow cytometry analysis (reference value: 3.31%). In kind it is functional.
Data set [17] relates to K562. Description: Induction of cell cycle arrest in human K562 cells assessed as G1 phase cells at 4.90 uM by propidium iodide staining based flow cytometry analysis (reference value: 43.16%). In kind it is functional. As to conditions: dose 4.9 µM.
Data set [18] concerns K562. Briefly: Induction of apoptosis in human K562 cells assessed as cell membrane rupture incubated for 48 hrs by Hoechst 33,258 staining based fluorescence microscopy analysis. As to conditions: dose 1.23-4.9 µM. The class given is functional.
Data set [19] deals with Cell membrane. Description: Induction of mitochondrial membrane potential loss in human K562 cells assessed as increase in apoptotic cells at 2.45 uM by JC-1 staining based flow cytometry analysis (reference value: 5.70). The class given is cell membranes.
The subject of data set [20] is Cell membrane. Description: Induction of mitochondrial membrane potential loss in human K562 cells assessed as increase in apoptotic cells at 1.23 uM by JC-1 staining based flow cytometry analysis (reference value: 5.70). In kind it is cell membranes.
Data set [21] relates to K562. Briefly: Induction of cell cycle arrest in human K562 cells assessed as G2 phase cells at 1.23 uM by propidium iodide staining based flow cytometry analysis (reference value: 12.80%). In kind it is functional.
The subject of data set [22] is K562. Description: Induction of cell cycle arrest in human K562 cells assessed as G1 phase cells at 2.45 uM by propidium iodide staining based flow cytometry analysis (reference value: 43.16%). In kind it is functional.

As a reminder, the IC50 is the concentration at which inhibition is half-maximal. Low readings indicate higher potency, high ones lower potency. As to `COC1=CC2[C@@H]3Cc4c(Cl)cc(OC)c(OCCCOC(=O)CCCCC(CCSCc5ccccc5)SCc5ccccc5)c4[C@]2(CCN3C)CC1=O` (some centres undefined), the IC50 is more than 50 µM with MCF7; more than 50 µM in the data set on PANC-1; more than 50 µM in [1]; more than 50 µM in the data set with HepG2; more than 50 µM in the data set on MDA-MB-231; 27.4 µM in the data set with K562 [2]. In the data set with A549, this compound returned a 50% inhibitory concentration (IC50) of more than 50 µM.
On to `COC1=CC2[C@@H]3Cc4c(Br)cc(OC)c(OCCCCCCOC(=O)CCCCC(CCSCc5ccccc5)SCc5ccccc5)c4[C@]2(CCN3C)CC1=O` (some centres undefined), for which the IC50 (in the data set with MCF7; in the data set on PANC-1; in data set [1]; in the data set on HepG2; with MDA-MB-231; in the data set with K562 [2]) was more than 50 µM each time. Moreover, the IC50 in the data set on A549 was more than 50 µM.
Take `COC1=CC2[C@@H]3Cc4c(Cl)cc(OC)c(OCCCCCOC(=O)CCCCC(CCSCc5ccccc5)SCc5ccccc5)c4[C@]2(CCN3C)CC1=O` (some centres undefined): the half-inhibitory concentration (IC50) with MCF7 was more than 50 µM; in the data set with PANC-1, more than 50 µM; in data set [1] it was more than 50 µM; in the data set with HepG2, more than 50 µM; in the data set on MDA-MB-231, more than 50 µM; in the data set with K562 [2], 19.5 µM. The compound further had a half-maximal inhibitory concentration (IC50) with A549 of more than 50 µM.
Turning to `COC1=CC2[C@@H]3Cc4c(Br)cc(OC)c(OCCCOC(=O)CCCCC(CCSCc5ccccc5)SCc5ccccc5)c4[C@]2(CCN3C)CC1=O` (some centres undefined), the IC50 in the data set on MCF7 is more than 50 µM; in the data set with PANC-1, more than 50 µM; in data set [1], more than 50 µM; in the data set with HepG2, more than 50 µM; in the data set with MDA-MB-231 it was more than 50 µM; with K562 [2], 24.3 µM. The 50% inhibitory concentration (IC50) with A549 was more than 50 µM.
On to `COC1=CC2[C@@H]3Cc4c(Cl)cc(OC)c(OCCCCCCOC(=O)CCCCC(CCSCc5ccccc5)SCc5ccccc5)c4[C@]2(CCN3C)CC1=O` (some centres undefined), for which the IC50 is more than 50 µM in the data set with MCF7; more than 50 µM in the data set on PANC-1; more than 50 µM in data set [1]; more than 50 µM in the data set on HepG2; more than 50 µM in the data set on MDA-MB-231; 21.5 µM with K562 [2]. For the same compound, in the data set on A549, the half-maximal inhibitory concentration (IC50) was more than 50 µM.
As for `COC1=CC2[C@@H]3Cc4c(Br)cc(OC)c(OCCCCCOC(=O)CCCCC(CCSCc5ccccc5)SCc5ccccc5)c4[C@]2(CCN3C)CC1=O` (some centres undefined), the half-inhibitory concentration (IC50) was more than 50 µM with MCF7; more than 50 µM in the data set with PANC-1; more than 50 µM in [1]; more than 50 µM with HepG2; more than 50 µM with MDA-MB-231; 22.5 µM in the data set on K562 [2]. In the data set on A549, this compound had an IC50 of more than 50 µM.
On to `COC1=CC2[C@@H]3Cc4ccc(OC)c(OCCCCCCOC(=O)CCCCC(CCSCc5ccccc5)SCc5ccccc5)c4[C@]2(CCN3C)CC1=O` (some centres undefined), for which the half-maximal inhibitory concentration (IC50) was more than 50 µM in the data set on MCF7; more than 50 µM in the data set on PANC-1; more than 50 µM in data set [1]; 28.2 µM in the data set on HepG2; more than 50 µM in the data set on MDA-MB-231; 3.02 µM in the data set on K562 [2]. Besides, the IC50 with A549 was 16.2 µM.
On to `COC1=CC2[C@@H]3Cc4c(Cl)cc(OC)c(OCCOC(=O)CCCCC(CCSCc5ccccc5)SCc5ccccc5)c4[C@]2(CCN3C)CC1=O` (some centres undefined), for which the IC50 is more than 50 µM in the data set on MCF7; more than 50 µM in the data set on PANC-1; more than 50 µM in data set [1]; more than 50 µM with HepG2; more than 50 µM in the data set with MDA-MB-231; 16.8 µM in the data set with K562 [2]. The IC50 in the data set on A549 is more than 50 µM.
For `COC1=CC2[C@@H]3Cc4c(Cl)cc(OC)c(OCCCCOC(=O)CCCCC(CCSCc5ccccc5)SCc5ccccc5)c4[C@]2(CCN3C)CC1=O` (some centres undefined), the IC50 was more than 50 µM in the data set on MCF7; more than 50 µM in the data set on PANC-1; more than 50 µM in data set [1]; more than 50 µM in the data set with HepG2; more than 50 µM in the data set on MDA-MB-231; 17.8 µM in the data set on K562 [2]. The compound also yielded an IC50 with A549 of more than 50 µM.
As for `COC1=CC2[C@@H]3Cc4ccc(OC)c(OCCCCCOC(=O)CCCCC(CCSCc5ccccc5)SCc5ccccc5)c4[C@]2(CCN3C)CC1=O` (some centres undefined), the IC50 in the data set with MCF7 is 45.4 µM; in the data set with PANC-1, more than 50 µM; in data set [1] it was more than 50 µM; in the data set with HepG2, 15.6 µM; in the data set with MDA-MB-231, more than 50 µM; in the data set on K562 [2] it was 2.45 µM. Also, the 50% inhibitory concentration (IC50) in the data set with A549 amounted to 23.9 µM. In addition, the Activity is listed as 13.66% in the data set with K562 [3]; 47.39% with K562 [4]; 9.83% in the data set on K562 [5]; 6.48% in the data set with K562 [6]; 38.69% in the data set with K562 [7]; 3.47% in the data set with K562 [8]. In addition, the Activity result was “Dose-Dependent Effect” with K562 [9]; 59.1% in the data set with Cell membrane [10]; 25.04% in the data set with K562 [11]; 39.9% in the data set with K562 [12]; 41.92% with K562 [13]; 32.95% with K562 [14]. Further, the Activity in the data set on K562 [15] was 3.53%; in the data set with K562 [16], 24.33%; with K562 [17], 60.57%; in the data set with K562 [18], “Dose-Dependent Effect”; with Cell membrane [19], 41.1%; with Cell membrane [20] it was 26.4%. For the same compound, the Activity with K562 [21] worked out at 10.69%; with K562 [22], 54.84%.
For the compound `COC1=CC2[C@@H]3Cc4c(Br)cc(OC)c(OCCCCOC(=O)CCCCC(CCSCc5ccccc5)SCc5ccccc5)c4[C@]2(CCN3C)CC1=O` (some centres undefined), the 50% inhibitory concentration (IC50) with MCF7 was more than 50 µM; in the data set on PANC-1, more than 50 µM; in data set [1], more than 50 µM; with HepG2 it was more than 50 µM; with MDA-MB-231, more than 50 µM; with K562 [2] it was 25.1 µM. Further, the half-inhibitory concentration (IC50) with A549 was more than 50 µM.
On to `COC1=CC2[C@@H]3Cc4c(Br)cc(OC)c(OCCOC(=O)CCCCC(CCSCc5ccccc5)SCc5ccccc5)c4[C@]2(CCN3C)CC1=O` (some centres undefined), for which the IC50 is more than 50 µM in the data set on MCF7; more than 50 µM in the data set with PANC-1; more than 50 µM in data set [1]; more than 50 µM with HepG2; more than 50 µM with MDA-MB-231; 18.9 µM in the data set on K562 [2]. This compound yielded an IC50 in the data set on A549 of more than 50 µM.

Values taken from ChEMBL document CHEMBL5584203, “Discovery of sinomenine/8-Bis(benzylthio)octanoic acid hybrids as potential anti-leukemia drug candidate via mitochondrial pathway” (Bioorg Med Chem Lett, 2024).
